How the values were obtained:
[1] = system: RNA2 (mismatched RNA, G→U); assay: Melting temperature (Tm) of PNA:RNA duplexes, single-mismatch RNA; format: binding; settings: UV absorbance at 260 nm, PBS buffer pH 7 with urea 5 M, strand concentration 5 μM
Text: (§1) Sequence selectivity is a very important issue in view of the use of PNAs in cellular systems, because partial hybridisation might occur with other unrelated miRNAs or, most importantly, with mRNA targets. We analysed the sequence selectivities of our PNAs with stricter models (DNA2 and RNA2) involving single base mismatches (G→T or G→U) located in the middle of the target sequences. In each case the sequence selectivity was confirmed by significant lowering of the melting temperature. The ranges of ΔTm due to the presence of these single mismatches were 8–21 °C for DNA, with the maximum drop in the case of PNA4 and the minimum observed in that of PNA6. For the latter it should be considered that the mismatch was facing the last chiral monomer, preventing the cooperative effect observed in the case of 2D-modifed highly constrained PNA.[22]
(§2) Measurements of Tm values: The Tm values were determined with a Lambda Bio 20 spectrophotometer and a Peltier PTP6 temperature programmer. Thermal denaturation profiles were measured by monitoring the absorbance at 260 nm from 18 to 90 °C with a heating rate of 1 °C min^−1 and recording every 0.1 °C. Measurement conditions: [PNA]=[DNA] or [RNA]=5 μM in PBS buffer [pH 7.0, NaCl (100 mM), NaH2PO4⋅H2O (10 mM), EDTA (0.1 mM)] with urea (5 M).

γ-globin gene expression = γ-globin gene expression by RT-qPCR; format: cell-based, human; settings: mithramycin-treated (15 nM) K562 cells, PNA 2 μM single administration, 72 h, n=3
Description: The strong inhibition of miR-210 by PNA2 and PNA4 might thus result in appreciable reduction of γ-globin gene expression.
Figure 6 A) Effects of pept-1, PNA1, PNA2 and PNA4 molecules (each 2 μM) on γ-globin content in K562 cell cultures for 72 h with MTH (15 nM). Data are reported as arbitrary units relative to cells treated with pept-1 and MTH (average±SD, n=3, *: p<0.05, **: p<0.01). B), C) Effects of treatment (72 h) with pept-1, PNA1, PNA2 and PNA4 molecules on K562 cells induced to erythroid differentiation by MTH (15 nM): B) summary of three independent experiments, C) a representative experiment showing staining of the cells with benzidine.
The nucleotide sequences used for real-time qPCR analysis of γ-globin mRNAs were γ-globin forward primer (5′-TGGCAA GAAGGT GCTGAC TTC-3′), γ-globin reverse primer (5′-TCACTC AGCTGG GCAAAG G-3′) and γ-globin probe (5′-FAM-TGGGAG ATGCCA TAAAGC ACCTGG-TAMRA-3′).[25] The relative expression was calculated by the comparative cycle threshold method with endogenous control human 18S rRNA as reference genes.[25]

[2] = system: RNA1 (target region of miR-210); assay: Melting temperature (Tm) of PNA:RNA duplexes, full-match RNA; format: binding; settings: UV absorbance at 260 nm, strand concentration 5 μM; for Tm, RNA1 in water: PBS buffer pH 7, no urea; for Tm, RNA1 in urea (5 M): PBS buffer pH 7 with urea 5 M
Description: as §2, with “Measurement conditions: [PNA]=[DNA] or [RNA]=5 μM in PBS buffer [pH 7.0, NaCl (100 mM), NaH2PO4⋅H2O (10 mM), EDTA (0.1 mM)] with urea (5 M).” left out

[3] = system: DNA1 (full-match antiparallel DNA); assay: Melting temperature (Tm) of PNA:DNA duplexes, full-match DNA; format: binding; settings: UV absorbance at 260 nm, strand concentration 5 μM; for Tm, DNA1 in urea (5 M): PBS buffer pH 7 (NaCl 100 mM, NaH2PO4 10 mM, EDTA 0.1 mM) with urea 5 M; for Tm, DNA1 in water: PBS buffer pH 7, no urea, 18 to 90 °C at 1 °C/min
Description: as §2, with “Measurement conditions: [PNA]=[DNA] or [RNA]=5 μM in PBS buffer [pH 7.0, NaCl (100 mM), NaH2PO4⋅H2O (10 mM), EDTA (0.1 mM)] with urea (5 M).” left out

miR-210 [4] = settings: cited from earlier work; for anti-miR activity: K562 cells, previously demonstrated
Text: (§3) The first step necessary to achieve anti-miR activity in cells is effective cellular uptake.

K562 cells [5] = settings: previously demonstrated; cited from earlier work
Text: as §3

[6] = system: DNA2 (mismatched DNA, G→T); assay: Melting temperature (Tm) of PNA:DNA duplexes, single-mismatch DNA; format: binding; settings: single mismatch; UV absorbance at 260 nm, PBS buffer pH 7 with urea 5 M, strand concentration 5 μM
Text: as §1, §2

miR-210 [7] = assay: miR-210 content by RT-qPCR analysis; format: cell-based, human; settings: K562 cells, 24 h; for inhibition of miR-210 bioavailability (miR-210 content): PNA 2 μM, Figure 5 A and B, relative to pept-1
Description: K562 cells were treated with 15 nM mithramycin in the presence of a PNA (2 μM), and after 24 h RNA was isolated and miR-210 was assayed by RT-qPCR analysis. This type of test has been used to evaluate miR content in many studies because it allows the free-miR content to be evaluated. […] Figure 5 A and B reports the obtained data, showing that inhibition of miR bioavailability was induced both with the modified PNA and with the peptide-conjugated one, whereas in the case of PNA1 it was unchanged. […] This might be related to inhibition of pre-miR maturation or to unavailability of the miR to the qRT-PCR analysis due to strong complexation with the PNA. In either case the bioavailability of the miR for targeting other genes should be reduced.
Transfection procedures: Anti-miR-210 PNAs were directly added to the cellular medium to reach the indicated final concentrations. K562 cells were cultured in 24-well plates starting from the initial density of 30 000 cells per mL. MTH was administrated together with anti-miR PNAs.
RNA extraction: Cells were isolated by centrifugation at 1500 rpm for 10 min at 4 °C, washed in PBS and lysed in Tri-reagent (Sigma–Aldrich) according to the manufacturer's instructions. The isolated RNA was washed once with cold ethanol (75 %), dried and dissolved in ultrapure nuclease-free water.
Real-time quantitative PCR: For microRNA quantification with real-time RT-PCR reagents, the primers and probes were obtained from Applied Biosystems. Reverse transcriptase (RT) reactions were performed with a TaqMan MicroRNA Reverse Transcription Kit (Applied Biosystems) for hsa-miR-210, hsa-miR-10a, hsa-miR-93, hsa-miR-99b, hsa-miR-126, hsa-miR-149, hsa-miR-424, hsa-miR-483-5p, hsa-miR-625, hsa-let-7c and the iQTM5 real-time PCR System Instrument (Bio-Rad). Relative expression was calculated by the comparative cycle threshold method and U6 microRNA was used as reference gene to normalise all RNA samples, because it is constant in the assayed samples by miR-profiling and quantitative RT-PCR analysis as previously reported.[25]

K562 cells [8] = assay: Mithramycin-induced erythroid differentiation (benzidine-positive cells); format: cell-based, human; settings: MTH 15 nM, PNA 2 μM, benzidine-positive cells after 5 days of induction, three independent experiments
Description: In order to evaluate effects on mithramycin-induced cellular differentiation, K562 cells were treated with MTH in the presence of pept-1, PNA1, PNA2 and PNA4 (each 2 μM). The proportions of benzidine-positive cells were determined after 5 days of induction.
Human cell lines and culture conditions: Human leukaemia K562 cells were cultured under humidified CO2 (5 %)/air in RPMI 1640 medium (Sigma) supplemented with foetal bovine serum (FBS, 10 %, Analitical de Mori, Milan, Italy), penicillin (50 units mL^−1) and streptomycin (50 μg mL^−1).[26] Mithramycin (MTH) was from Sigma. Stock solutions of MTH (100 μM) were stored at −20 °C in the dark and diluted immediately before use. Treatment of K562 cells with MTH was carried out by addition of the appropriate drug concentrations at the beginning of the cultures (cells were seeded at 30 000 mL^−1). The medium was not changed during the induction period. To determine antiproliferative activity, cell growth was studied by determining the cell number per mL with a Z1 Coulter Counter (Coulter Electronics, Hialeah, FL, USA). Erythroid differentiated K562 cells containing haemoglobin were detected by specific reaction with a benzidine/hydrogen peroxide solution as reported elsewhere.[26] The final concentration of benzidine was 0.2 % in glacial acetic acid (5 M) and H2O2 (10 %).

K562 cells [9] = settings: cited from earlier work
Description: In order to determine the distributions of PNAs within target cells, analysis was performed with a fluorescence microscope. […] Low uptake was also found by fluorescence microscopy with PNA1.[25]

Substance | Tm, RNA2 in urea (5 M) [1] [°C] | effect on γ-globin gene expression (γ-globin gene expression) | Tm, RNA1 in water [2] [°C] | Tm, RNA1 in urea (5 M) [2] [°C] | Tm, DNA1 in urea (5 M) [3] [°C] | Tm, DNA1 in water [3] [°C] | anti-miR activity (miR-210 [4]) | selectivity of miR-210 inhibition versus other miRs (miR-210 [4]; previously found) | internalisation within K562 cells (K562 cells [5]) | Tm, DNA2 in urea (5 M) [6] [°C] | miR-210 inhibition upon treatment with mithramycin (miR-210 [7]; PNA 2 μM with MTH 15 nM, relative to pept-1 and MTH) | inhibition of miR-210 bioavailability (miR-210 content) (miR-210 [7]) | effect on MTH-induced erythroid differentiation (K562 cells [8]) | uptake by fluorescence microscopy (K562 cells [9])
H-R8CCGCTGTCACACGCACAG-NH2 [PNA2, 18-mer anti-miR-210 PNA conjugated with octaarginine (R8) peptide, reference compound] | 73 | inhibited γ-globin gene expression | >90 | 88 | 80 | >90 | pronounced anti-miR activity | inhibit miR-210 selectively | efficiently internalised | 68 | best results | Stronger inhibition | able to inhibit erythroid differentiation | 
H-CCGCTGTCACACGCACAG-NH2 [PNA1, unmodified achiral "naked" 18-mer PNA targeted against miR-210, reference compound] | 62 | did not show appreciable effects | 88 | 77 | 70 | 85 | no activity |  |  | 58 |  | unchanged |  | Low uptake

— publication PMC3401907, “Cellular Uptakes, Biostabilities and Anti-miR-210 Activities of Chiral Arginine-PNAs in Leukaemic K562 Cells” (Chembiochem, 2012)
